Drawing on PubChem BioAssay (NCI), this text covers TGI for twelve compounds.

Each structure is given as a SMILES string.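 All cell lines were grown in 96-well plates and treated with compound for 48 hours. TGI denotes the concentration required for complete inhibition of growth.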 Some results are limits rather than exact numbers.

Among the test systems are LOX IMVI melanoma; SK-OV-3 ovarian; MALME-3M melanoma; M14 melanoma; SW-620 colon; SF-539 CNS; RPMI-8226 leukemia; NCI-H522 lung; NCI-H226 lung; HCT-15 colon; ACHN renal; PC-3 prostate.
Test in all cases: inhibition of tumour cell growth, NCI panel, 48 h

Take `CC1=NNC(=O)C1C1C=C(c2c[nH]c3ccccc23)OC1=O` (centres undefined): the TGI in the test on LOX IMVI melanoma, in the test on SK-OV-3 ovarian, with MALME-3M melanoma, with M14 melanoma, in the test on SW-620 colon and with SF-539 CNS was over 100 µM in each case. Moreover, the TGI with RPMI-8226 leukemia, in the test on NCI-H522 lung, in the test on NCI-H226 lung, with HCT-15 colon, in the test on ACHN renal and in the test with PC-3 prostate was over 100 µM each time.

For `CC1(C)CCC[C@@]2(C)C1CC[C@@]1(CO1)[C@@H]2/C=C\C(C=O)CC=O` (some centres undefined), the TGI with LOX IMVI melanoma, in the test on SK-OV-3 ovarian, in the test with MALME-3M melanoma, in the test on M14 melanoma, with SW-620 colon and with SF-539 CNS was over 100 µM in each case. The TGI in the test with RPMI-8226 leukemia is over 28.1 µM; with NCI-H522 lung, over 100 µM; with NCI-H226 lung, over 100 µM; with HCT-15 colon, over 100 µM; with ACHN renal, over 100 µM; with PC-3 prostate, over 100 µM.

With `O=C(O)CCC(NC(=O)c1ccc(CNc2nc3cc(C(F)(F)F)ccc3nc2C(=O)O)cc1)C(=O)O` (centres undefined), the TGI with LOX IMVI melanoma, in the test on SK-OV-3 ovarian, in the test on MALME-3M melanoma, in the test on M14 melanoma, in the test on SW-620 colon and with SF-539 CNS was over 100 µM each time. Also, the TGI with NCI-H522 lung, in the test on NCI-H226 lung, with HCT-15 colon, in the test on ACHN renal and in the test with PC-3 prostate was over 100 µM each time.

In the case of `COC(=O)C1=COC2OC3CC1C2C(C)O3` (centres undefined), the TGI with LOX IMVI melanoma, in the test on SK-OV-3 ovarian, in the test with MALME-3M melanoma, in the test on M14 melanoma, in the test on SW-620 colon and in the test on SF-539 CNS was over 100 µM each time. In addition, the TGI in the test on RPMI-8226 leukemia, with NCI-H522 lung, in the test on NCI-H226 lung, in the test with HCT-15 colon, in the test with ACHN renal and with PC-3 prostate was over 100 µM in each case.

`COc1ccc(C2=NN(C(=O)c3ccc(Cl)cc3)C(O)(c3cc(F)c(Cl)cc3Cl)C2)cc1` (centres undefined): the TGI in the test with LOX IMVI melanoma, with SK-OV-3 ovarian, in the test on MALME-3M melanoma, in the test on M14 melanoma, in the test with SF-539 CNS and in the test with RPMI-8226 leukemia was over 100 µM in each case. The TGI with NCI-H522 lung, in the test on NCI-H226 lung, in the test on HCT-15 colon, with ACHN renal and in the test on PC-3 prostate was over 100 µM in each case.

For the compound `N#CC(C#N)=Cn1c(=S)[nH]c2ccc([N+](=O)[O-])cc21`, the TGI in the test with LOX IMVI melanoma, with SK-OV-3 ovarian, with MALME-3M melanoma, in the test on M14 melanoma, in the test on SW-620 colon and with SF-539 CNS was over 100 µM each time. For the same compound, the TGI with RPMI-8226 leukemia, in the test with NCI-H522 lung, in the test with NCI-H226 lung, in the test on ACHN renal and in the test on PC-3 prostate was over 100 µM in each case.

With `CC12CCC(=O)[C@@]1(C)CCCC2O` (some centres undefined), the TGI in the test on LOX IMVI melanoma, with SK-OV-3 ovarian, in the test on MALME-3M melanoma, in the test with M14 melanoma, in the test with SW-620 colon and with SF-539 CNS was over 100 µM in each case. Further, the TGI in the test on RPMI-8226 leukemia, with NCI-H522 lung, with NCI-H226 lung, in the test with HCT-15 colon, in the test with ACHN renal and in the test with PC-3 prostate was over 100 µM throughout.

On to `O=Cc1ccc(-c2ccc(S(=O)(=O)O)cc2)o1`, for which the TGI in the test with LOX IMVI melanoma, in the test on SK-OV-3 ovarian, in the test on MALME-3M melanoma, with M14 melanoma, in the test on SW-620 colon and with SF-539 CNS was over 100 µM in each case. The TGI in the test on RPMI-8226 leukemia, in the test on NCI-H522 lung, in the test on NCI-H226 lung, in the test with HCT-15 colon, in the test with ACHN renal and in the test on PC-3 prostate was over 100 µM throughout.

In the case of `CCOC(=O)CCc1ccc(NC(=O)/C=C/c2ccc([N+](=O)[O-])o2)cc1`, the TGI was 1.54 µM with LOX IMVI melanoma; over 100 µM with SK-OV-3 ovarian; 3.14 µM in the test on MALME-3M melanoma; 2.43 µM in the test on M14 melanoma; 2.31 µM with SW-620 colon; 3.99 µM in the test on SF-539 CNS. Further, the TGI in the test with NCI-H522 lung was 0.548 µM; with NCI-H226 lung, 25.5 µM; in the test with HCT-15 colon it was 4.05 µM; in the test with ACHN renal it was 2.73 µM; in the test on PC-3 prostate it was over 29.9 µM.

For `Cc1ccc2c(c1)CC1(C2)Cc2ccc(C)cc2C1=O` (centres undefined), the TGI with LOX IMVI melanoma was 36.4 µM; in the test with SK-OV-3 ovarian, over 100 µM; in the test on MALME-3M melanoma, 43.8 µM; with M14 melanoma, 71.6 µM; in the test on SW-620 colon, over 100 µM; in the test on SF-539 CNS, 87.3 µM. The TGI with RPMI-8226 leukemia was 95.3 µM; in the test on NCI-H522 lung, 61.3 µM; in the test with NCI-H226 lung it was 61.6 µM; with HCT-15 colon it was 79.5 µM; with ACHN renal it was over 100 µM; with PC-3 prostate it was over 100 µM.

With `Cc1ccc(CN2CCN(Cc3ccc(C)o3)C(C)C2)o1` (centres undefined), the TGI in the test on LOX IMVI melanoma, in the test with SK-OV-3 ovarian, in the test on MALME-3M melanoma, in the test on M14 melanoma, in the test with SW-620 colon and in the test with SF-539 CNS was over 100 µM each time. The TGI with RPMI-8226 leukemia, with NCI-H522 lung, in the test with NCI-H226 lung, in the test on HCT-15 colon, in the test on ACHN renal and in the test on PC-3 prostate was over 100 µM in each case.

For `Cc1ccc(S(=O)(=O)NNC(=O)Nc2ccc([N+](=O)[O-])cc2)cc1`, the TGI is over 100 µM in the test on LOX IMVI melanoma; over 100 µM in the test on MALME-3M melanoma; over 100 µM in the test on M14 melanoma; over 100 µM in the test on SW-620 colon; over 100 µM in the test on SF-539 CNS; 78.5 µM in the test with RPMI-8226 leukemia. For the same compound, the TGI in the test with NCI-H522 lung, in the test with NCI-H226 lung, in the test with HCT-15 colon, with ACHN renal and in the test on PC-3 prostate was over 100 µM in each case.
